Test results published in PMC9969401, “Discovery of 2-(3-Benzamidopropanamido)thiazole-5-carboxylate Inhibitors of the Kinesin HSET (KIFC1) and the Development of Cellular Target Engagement Probes” (Journal of Medicinal Chemistry, 2023).
Like-named read-outs stand apart in the source and are kept apart here.

Target: T1, recombinant full-length HSET (Homo sapiens, UniProt Q9BW19)
T1 construct: 5 nM full-length human N-terminal His-tag HSET; His-tag (N)
T1 sequence (Q9BW19 1-673): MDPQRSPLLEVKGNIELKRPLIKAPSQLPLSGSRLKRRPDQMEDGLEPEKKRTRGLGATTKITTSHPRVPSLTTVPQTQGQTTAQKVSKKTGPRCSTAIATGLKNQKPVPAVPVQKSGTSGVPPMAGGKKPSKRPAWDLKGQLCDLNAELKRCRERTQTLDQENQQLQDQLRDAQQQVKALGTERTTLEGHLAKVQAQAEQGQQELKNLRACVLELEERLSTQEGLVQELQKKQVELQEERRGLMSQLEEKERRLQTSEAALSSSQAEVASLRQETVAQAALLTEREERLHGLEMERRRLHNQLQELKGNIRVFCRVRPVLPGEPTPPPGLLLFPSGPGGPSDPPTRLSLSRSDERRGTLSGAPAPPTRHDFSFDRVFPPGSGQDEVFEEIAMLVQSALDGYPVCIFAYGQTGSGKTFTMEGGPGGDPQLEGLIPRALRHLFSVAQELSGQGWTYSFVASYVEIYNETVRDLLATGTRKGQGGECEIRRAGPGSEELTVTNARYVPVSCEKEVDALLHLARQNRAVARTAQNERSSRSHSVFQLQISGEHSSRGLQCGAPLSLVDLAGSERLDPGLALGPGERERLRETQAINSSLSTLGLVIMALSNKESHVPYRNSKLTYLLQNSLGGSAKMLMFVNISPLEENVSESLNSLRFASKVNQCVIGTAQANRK
Experiment: ADP-Glo HSET assay (3 μM ATP), microtubule-stimulated ATPase
Format: biochemical
Settings: for IC50: read-out: HSET ADP-Glo IC50; for HSET inhibitory activity (in words): HSET ADP-Glo
Procedure: The HSET or Eg5 ATPase activity was measured using the ADP-Glo Kinase Assay kit (Promega, V9102). The assays were run using final concentrations of 5 nM full-length human N-terminal His-tag HSET or 4 nM GST-tagged Eg5 motor domain protein (Cytoskeleton, EG01) and an assay buffer containing 20 mM HEPES pH 6.8, 10 mM MgCl2, 0.25 mM EGTA, 0.4 mM Triton X-100, and 1 mM DTT. Preformed microtubules (Universal Biologicals Cambridge, bovine MT001-XL, or porcine MT002-XL), which were reconstituted in 15 mM PIPES pH 7, 1 mM MgCl2, and 20 μM paclitaxel, were present at a final assay concentration of 70 μg/mL. A reaction volume of 5 μL was used in Proxiplate 384 plus white assay plates (PerkinElmer, 6008280). To measure compound inhibition, 100 nL of compound dissolved in DMSO or DMSO alone was preincubated with the HSET and microtubules for 10 min before 3 μM Ultra-Pure ATP was added to start the ATPase reaction for the 3 μM ATP HSET assay. For the 500 μM ATP HSET assay, the addition of 500 μM Ultra-Pure ATP was used. For the Eg5 ATPase assay, 4.8 μM Ultra-Pure ATP was used. All reactions were incubated at 25 °C for 80 min and then stopped by the addition of 5 μL of the ADP-Glo reagent. 10 μL of Kinase Detection Reagent was then added after a further 45 min of incubation. The luminescence was read after 45 min on a PheraStar FSX plate reader (BMG Labtech). The data processing was performed using Dotmatics Studies software package. Percentage inhibition was determined based on normalization to high controls (0% inhibition, all reagents with 100 nL of DMSO alone) and low controls (100% inhibition […], without HSET). The IC50 values for each compound were determined using a four-parameter logistic curve fit of % inhibition versus concentration.

[1] = LE = −1.4Log(IC50 [M])/number of non-hydrogen atoms (Table 2)
[2] = LLE = −Log(IC50 [M]) – cLogP (MoKa) (Table 2)
[3] = preformed microtubules, 3 μM ATP, mean (±SD) n ≥ 3, >200 from a single determination (Table 2)
[4] = preformed microtubules, 3 μM ATP, mean (±SD) n ≥ 3, >200 from a single determination (Table 1)
[5] = LE = −1.4Log(IC50 [M])/number of non-hydrogen atoms (Table 1)
[6] = LLE = −Log(IC50 [M]) – cLogP (MoKa) (Table 1)

Row | LE [1] | LLE [2] | IC50 [3] [µM] | HSET inhibitory activity (in words) | IC50 [4] [µM] | Structure (SMILES) | other results
1 | 0.19 | 2.1 | 44.4 | – | – | CCOC(=O)c1sc(NC(=O)CCN(C)C(=O)c2cccc(-c3noc(C)n3)c2)nc1C [Compound 24, Ethyl 4-Methyl-2-(3-(N-methyl-3-(5-methyl-1,2,4-oxadiazol-3-yl)benzamido)propanamido)thiazole-5-carboxylate] | fold reduction in HSET potency (relative to 13): 700 fold
2 | 0.30 | 4.7 | 0.157 | – | – | CCCOC(=O)c1cc(NC(=O)CCNC(=O)c2cccc(-c3noc(C)n3)c2)nn1C [Compound 28, Propyl 1-Methyl-3-(3-(3-(5-methyl-1,2,4-oxadiazol-3-yl)benzamido)propanamido)-1H-pyrazole-5-carboxylate] | –
3 | 0.29 | 3.4 | 0.288 | – | – | CCOC(=O)c1sc(NC(=O)C[C@@H](C)NC(=O)c2cccc(-c3noc(C)n3)c2)nc1C [Compound 31, Ethyl 4-Methyl-2-[[(3R)-3-[[3-(5-methyl-1,2,4-oxadiazol-3-yl)benzoyl]amino]butanoyl]amino]thiazole-5-carboxylate] | –
4 | 0.29 | 3.9 | 0.405 | – | – | CCOC(=O)c1sc(C(=O)NCCNC(=O)c2cccc(-c3noc(C)n3)c2)nc1C [Compound 25, Ethyl 4-Methyl-2-((2-(3-(5-methyl-1,2,4-oxadiazol-3-yl)benzamido)ethyl)carbamoyl)thiazole-5-carboxylate] | fold reduction in HSET potency (relative to 13): six-fold
5 | 0.31 | 4.6 | 0.089 | – | – | CCOC(=O)c1sc(N(C)C(=O)CCNC(=O)c2cccc(-c3noc(C)n3)c2)nc1C [Compound 23, Ethyl 4-Methyl-2-(N-methyl-3-(3-(5-methyl-1,2,4-oxadiazol-3-yl)benzamido)propanamido)thiazole-5-carboxylate] | –
6 | – | – | – | ablated the activity | > 200 | CCOC(=O)c1sc(NC(=O)CCNC(=O)c2ccccc2)nc1C [Compound 9, Ethyl 2-(3-Benzamidopropanamido)-4-methylthiazole-5-carboxylate] | –
7 | – | – | – | – | 3.54 | CCOC(=O)c1sc(NC(=O)CCNC(=O)c2cccc(OC)c2)nc1C [Compound 11, Ethyl 2-(3-(3-Methoxybenzamido)propanamido)-4-methylthiazole-5-carboxylate] | LE [5]: 0.28; LLE [6]: 2.8
8 | – | – | > 200 | – | – | Cc1csc(NC(=O)CCNC(=O)c2cccc(-c3noc(C)n3)c2)n1 [Compound 20, 3-(5-Methyl-1,2,4-oxadiazol-3-yl)-N-(3-((4-methylthiazol-2-yl)amino)-3-oxopropyl)benzamide] | fold reduction in HSET potency (relative to 13): 3000 fold
9 | – | – | – | eliminated potency | > 200 | CCOC(=O)c1sc(NC(=O)CCNC(=O)c2cccc(-c3n[nH]c(C)n3)c2)nc1C [Compound 15, Ethyl 4-Methyl-2-(3-(3-(5-methyl-1H-1,2,4-triazol-3-yl)benzamido)propanamido)thiazole-5-carboxylate] | –
10 | 0.22 | 2.5 | 11.5 | – | – | CCOC(=O)c1ccc(NC(=O)CCNC(=O)c2cccc(-c3noc(C)n3)c2)nc1C [Compound 27, Ethyl 2-Methyl-6-(3-(3-(5-methyl-1,2,4-oxadiazol-3-yl)benzamido)propanamido)nicotinate] | fold reduction in HSET potency (relative to 13): greater than 180 fold
11 | – | – | – | no activity | > 200 | CCNC(=O)c1sc(NC(=O)CCNC(=O)c2cccc(C)c2)nc1C [Compound 7, N-Ethyl-4-methyl-2-(3-(3-methylbenzamido)propanamido)thiazole-5-carboxamide] | –
12 | – | – | > 200 | abolished the HSET activity | – | CCOC(=O)c1sc(NC(=O)CNC(=O)c2cccc(-c3noc(C)n3)c2)nc1C [Compound 21, Ethyl 4-Methyl-2-(2-(3-(5-methyl-1,2,4-oxadiazol-3-yl)benzamido)acetamido)thiazole-5-carboxylate] | –
13 | – | – | – | – | 0.26 | CCOC(=O)c1sc(NC(=O)CCNC(=O)c2cccc(-c3nnc(C)o3)c2)nc1C [Compound 16, Ethyl 4-Methyl-2-(3-(3-(5-methyl-1,3,4-oxadiazol-2-yl)benzamido)propanamido)thiazole-5-carboxylate] | LE [5]: 0.3; LLE [6]: 4.4
14 | – | – | – | – | 0.101 | CCOC(=O)c1sc(NC(=O)CCNC(=O)c2cccc(-c3nc(C)no3)c2)nc1C [Compound 17, Ethyl 4-Methyl-2-(3-(3-(3-methyl-1,2,4-oxadiazol-5-yl)benzamido)propanamido)thiazole-5-carboxylate] | LE [5]: 0.32; LLE [6]: 4.3
15 | – | – | > 200 | abolished the HSET activity | – | CCOC(=O)c1sc(NC(=O)CCCNC(=O)c2cccc(-c3noc(C)n3)c2)nc1C [Compound 22, Ethyl 4-Methyl-2-(4-(3-(5-methyl-1,2,4-oxadiazol-3-yl)benzamido)butanamido)thiazole-5-carboxylate] | –
16 | – | – | – | ablated the activity | > 200 | CCOC(=O)c1sc(NC(=O)CCNC(=O)C2CCCC(C)C2)nc1C (centres unmarked) [Compound 10, Ethyl 4-Methyl-2-(3-(3-methylcyclohexane-1-carboxamido)propanamido)thiazole-5-carboxylate] | –
17 | – | – | – | ablated the activity | > 200 | CCOC(=O)c1sc(NC(=O)CCNC(=O)c2cccc(Cl)c2)nc1C [Compound 6, Ethyl 2-(3-(3-Chlorobenzamido)propanamido)-4-methylthiazole-5-carboxylate] | –
18 | 0.32 | 4.1 | 0.061 | – | – | CCOC(=O)c1sc(NC(=O)C[C@H](C)NC(=O)c2cccc(-c3noc(C)n3)c2)nc1C [Compound 30, Ethyl 4-Methyl-2-[[(3S)-3-[[3-(5-methyl-1,2,4-oxadiazol-3-yl)benzoyl]amino]butanoyl]amino]thiazole-5-carboxylate] | –
19 | – | – | – | – | – | CCOC(=O)c1sc(NC(=O)CCNC(=O)c2ccccc2C)nc1C [Compound 3, Ethyl 4-methyl-2-(3-(2-methylbenzamido)propanamido)thiazole-5-carboxylate] | inhibition at 200 µM (200μM compound, 3 μM ATP, single determination): 52%; fold reduction in HSET potency (relative to 2): seventy-fold
20 | – | – | – | – | – | CCOC(=O)c1cnc(NC(=O)CCNC(=O)c2cccc(-c3noc(C)n3)c2)s1 [Compound 19, Ethyl 2-(3-(3-(5-Methyl-1,2,4-oxadiazol-3-yl)benzamido)propanamido)thiazole-5-carboxylate] | inhibition at 4 µM (4μM compound, 3 μM ATP): 50%; fold reduction in HSET potency (relative to 13): 65 fold; IC50 (supplementary CSV): > 4 µM
21 | – | – | – | ablated the activity | > 200 | CCOC(=O)c1sc(NC(=O)CCNC(C)=O)nc1C [Compound 8, ethyl 2-(3-acetamidopropanamido)-4-methylthiazole-5-carboxylate] | –
22 | – | – | – | – | 2.44 | CCOC(=O)c1sc(NC(=O)CCNC(=O)c2cccc(-c3ccccc3)c2)nc1C [Compound 12, Ethyl 2-(3-([1,1′-Biphenyl]-3-carboxamido)propanamido)-4-methylthiazole-5-carboxylate] | LE [5]: 0.25; LLE [6]: 1.2
